According to ChEMBL document CHEMBL4665642, “Anticancer profile of newly synthesized BRAF inhibitors possess 5-(pyrimidin-4-yl)imidazo[2,1-b]thiazole scaffold” (Bioorg Med Chem, 2019):

Tests used:
Format in all cases: functional
Settings in all cases: read-out: Activity
[1] = tested on: A549; experiment: Cytotoxicity against human A549 cells assessed as cell viability at 10 uM incubated for 48 hrs by sulforhodamine B assay relative to control
[2] = tested on: MOLT-4; experiment: Cytotoxicity against human MOLT-4 cells assessed as cell viability at 10 uM incubated for 48 hrs by sulforhodamine B assay relative to control
[3] = tested on: CAKI-1; experiment: Cytotoxicity against human CAKI-1 cells assessed as cell viability at 10 uM incubated for 48 hrs by sulforhodamine B assay relative to control
[4] = tested on: SNB-19; experiment: Cytotoxicity against human SNB-19 cells assessed as cell viability at 10 uM incubated for 48 hrs by sulforhodamine B assay relative to control
[5] = tested on: T47D; experiment: Cytotoxicity against human T47D cells assessed as cell viability at 10 uM incubated for 48 hrs by sulforhodamine B assay relative to control
[6] = tested on: RPMI-8226; experiment: Cytotoxicity against human RPMI-8226 cells assessed as cell viability at 10 uM incubated for 48 hrs by sulforhodamine B assay relative to control
[7] = tested on: UACC-62; experiment: Cytotoxicity against human UACC-62 cells assessed as cell viability at 10 uM incubated for 48 hrs by sulforhodamine B assay relative to control
[8] = tested on: MDA-MB-231; experiment: Cytotoxicity against human MDA-MB-231 cells assessed as cell viability at 10 uM incubated for 48 hrs by sulforhodamine B assay relative to control
[9] = tested on: MCF7; experiment: Cytotoxicity against human MCF7 cells assessed as cell viability at 10 uM incubated for 48 hrs by sulforhodamine B assay relative to control
[10] = tested on: SK-MEL-2; experiment: Cytotoxicity against human SK-MEL-2 cells assessed as cell viability at 10 uM incubated for 48 hrs by sulforhodamine B assay relative to control
[11] = tested on: IGROV-1; experiment: Cytotoxicity against human IGROV-1 cells assessed as cell viability at 10 uM incubated for 48 hrs by sulforhodamine B assay relative to control
[12] = tested on: COLO 205; experiment: Cytotoxicity against human COLO 205 cells assessed as cell viability at 10 uM incubated for 48 hrs by sulforhodamine B assay relative to control
[13] = tested on: SN12C; experiment: Cytotoxicity against human SN12C cells assessed as cell viability at 10 uM incubated for 48 hrs by sulforhodamine B assay relative to control
[14] = tested on: NCI-H23; experiment: Cytotoxicity against human NCI-H23 cells assessed as cell viability at 10 uM incubated for 48 hrs by sulforhodamine B assay relative to control
[15] = tested on: K562; experiment: Cytotoxicity against human K562 cells assessed as cell viability at 10 uM incubated for 48 hrs by sulforhodamine B assay relative to control
[16] = tested on: HOP-62; experiment: Cytotoxicity against human HOP-62 cells assessed as cell viability at 10 uM incubated for 48 hrs by sulforhodamine B assay relative to control
[17] = tested on: NCI-H522; experiment: Cytotoxicity against human NCI-H522 cells assessed as cell viability at 10 uM incubated for 48 hrs by sulforhodamine B assay relative to control
[18] = tested on: SK-MEL-5; experiment: Cytotoxicity against human SK-MEL-5 cells assessed as cell viability at 10 uM incubated for 48 hrs by sulforhodamine B assay relative to control
[19] = tested on: SK-MEL-28; experiment: Cytotoxicity against human SK-MEL-28 cells assessed as cell viability at 10 uM incubated for 48 hrs by sulforhodamine B assay relative to control
[20] = tested on: SR; experiment: Cytotoxicity against human SR cells assessed as cell viability at 10 uM incubated for 48 hrs by sulforhodamine B assay relative to control
[21] = tested on: SF-268; experiment: Cytotoxicity against human SF-268 cells assessed as cell viability at 10 uM incubated for 48 hrs by sulforhodamine B assay relative to control
[22] = tested on: HCC 2998; experiment: Cytotoxicity against human HCC 2998 cells assessed as cell viability at 10 uM incubated for 48 hrs by sulforhodamine B assay relative to control
[23] = tested on: HCT-29; experiment: Cytotoxicity against human […] cells assessed as cell viability at 10 uM incubated for 48 hrs by sulforhodamine B assay relative to control
[24] = tested on: EKVX; experiment: Cytotoxicity against human EKVX cells assessed as cell viability at 10 uM incubated for 48 hrs by sulforhodamine B assay relative to control
[25] = tested on: HOP-92; experiment: Cytotoxicity against human HOP-92 cells assessed as cell viability at 10 uM incubated for 48 hrs by sulforhodamine B assay relative to control
[26] = tested on: LOX IMVI; experiment: Cytotoxicity against human LOX IMVI cells assessed as cell viability at 10 uM incubated for 48 hrs by sulforhodamine B assay relative to control
[27] = tested on: NCI-H226; experiment: Cytotoxicity against human NCI-H226 cells assessed as cell viability at 10 uM incubated for 48 hrs by sulforhodamine B assay relative to control
[28] = tested on: DU-145; experiment: Cytotoxicity against human DU-145 cells assessed as cell viability at 10 uM incubated for 48 hrs by sulforhodamine B assay relative to control
[29] = tested on: NCI-H460; experiment: Cytotoxicity against human NCI-H460 cells assessed as cell viability at 10 uM incubated for 48 hrs by sulforhodamine B assay relative to control
[30] = tested on: CCRF-CEM; experiment: Cytotoxicity against human CCRF-CEM cells assessed as cell viability at 10 uM incubated for 48 hrs by sulforhodamine B assay relative to control
[31] = tested on: UO-31; experiment: Cytotoxicity against human UO-31 cells assessed as cell viability at 10 uM incubated for 48 hrs by sulforhodamine B assay relative to control
[32] = tested on: KM12; experiment: Cytotoxicity against human KM12 cells assessed as cell viability at 10 uM incubated for 48 hrs by sulforhodamine B assay relative to control
[33] = tested on: MDA-MB-468; experiment: Cytotoxicity against human MDA-MB-468 cells assessed as cell viability at 10 uM incubated for 48 hrs by sulforhodamine B assay relative to control
[34] = tested on: SNB-75; experiment: Cytotoxicity against human SNB-75 cells assessed as cell viability at 10 uM incubated for 48 hrs by sulforhodamine B assay relative to control
[35] = tested on: HCT-15; experiment: Cytotoxicity against human HCT-15 cells assessed as cell viability at 10 uM incubated for 48 hrs by sulforhodamine B assay relative to control
[36] = tested on: SK-OV-3; experiment: Cytotoxicity against human SK-OV-3 cells assessed as cell viability at 10 uM incubated for 48 hrs by sulforhodamine B assay relative to control
[37] = tested on: SW-620; experiment: Cytotoxicity against human SW-620 cells assessed as cell viability at 10 uM incubated for 48 hrs by sulforhodamine B assay relative to control
[38] = tested on: ACHN; experiment: Cytotoxicity against human ACHN cells assessed as cell viability at 10 uM incubated for 48 hrs by sulforhodamine B assay relative to control
[39] = tested on: HCT-116; experiment: Cytotoxicity against human HCT-116 cells assessed as cell viability at 10 uM incubated for 48 hrs by sulforhodamine B assay relative to control
[40] = tested on: NCI-H322M; experiment: Cytotoxicity against human NCI-H322M cells assessed as cell viability at 10 uM incubated for 48 hrs by sulforhodamine B assay relative to control
[41] = tested on: UACC-257; experiment: Cytotoxicity against human UACC-257 cells assessed as cell viability at 10 uM incubated for 48 hrs by sulforhodamine B assay relative to control

O=S(=O)(NCCNc1nccc(-c2c(-c3cccc(F)c3)nc3sccn23)n1)c1ccc(Cl)cc1
viability at 10 µM [1]: 32.1%
viability at 10 µM [2]: 46.8%
viability at 10 µM [3]: 41.1%
viability at 10 µM [4]: 66.5%
viability at 10 µM [5]: 43.2%
viability at 10 µM [6]: 59.5%
viability at 10 µM [7]: 44.3%
viability at 10 µM [8]: 91.1%
viability at 10 µM [9]: 24.7%
viability at 10 µM [10]: 79.8%
viability at 10 µM [11]: 15.8%
viability at 10 µM [12]: 40%
viability at 10 µM [13]: 48.7%
viability at 10 µM [14]: 74.9%
viability at 10 µM [15]: 41.3%
viability at 10 µM [16]: 82.6%
viability at 10 µM [17]: 68.2%
viability at 10 µM [18]: 36.5%
viability at 10 µM [19]: 74.7%
viability at 10 µM [20]: 40.6%
viability at 10 µM [21]: 52.9%
viability at 10 µM [22]: 83.4%
viability at 10 µM [23]: 36%
viability at 10 µM [24]: 66.3%
viability at 10 µM [25]: 76.6%
viability at 10 µM [26]: 43.6%
viability at 10 µM [27]: 49.3%
viability at 10 µM [28]: 54.2%
viability at 10 µM [29]: 30.1%
viability at 10 µM [30]: 50.5%
viability at 10 µM [31]: 23.9%
viability at 10 µM [32]: 47.7%
viability at 10 µM [33]: 64.5%
viability at 10 µM [34]: 78.9%
viability at 10 µM [35]: 31.9%
viability at 10 µM [36]: 94.9%
viability at 10 µM [37]: 59.6%
viability at 10 µM [38]: 35.7%
viability at 10 µM [39]: 34%
viability at 10 µM [40]: 65.5%
viability at 10 µM [41]: 88.7%

O=S(=O)(NCCNc1nccc(-c2c(-c3cccc(F)c3)nc3sccn23)n1)c1cccc(F)c1
viability at 10 µM [1]: 42.1%
viability at 10 µM [2]: 57.8%
viability at 10 µM [3]: 44.6%
viability at 10 µM [4]: 73%
viability at 10 µM [5]: 49.1%
viability at 10 µM [6]: 66.8%
viability at 10 µM [7]: 56.2%
viability at 10 µM [8]: 79%
viability at 10 µM [9]: 30.8%
viability at 10 µM [10]: 81.8%
viability at 10 µM [11]: 24.6%
viability at 10 µM [12]: 45.1%
viability at 10 µM [13]: 55.3%
viability at 10 µM [14]: 83.4%
viability at 10 µM [15]: 48.6%
viability at 10 µM [16]: 83.5%
viability at 10 µM [17]: 75.8%
viability at 10 µM [18]: 53.5%
viability at 10 µM [19]: 94.7%
viability at 10 µM [20]: 45.5%
viability at 10 µM [21]: 68.6%
viability at 10 µM [22]: 95.5%
viability at 10 µM [23]: 43.9%
viability at 10 µM [24]: 72.1%
viability at 10 µM [25]: 88.2%
viability at 10 µM [26]: 51.2%
viability at 10 µM [27]: 62.5%
viability at 10 µM [28]: 65.1%
viability at 10 µM [29]: 43%
viability at 10 µM [30]: 63.3%
viability at 10 µM [31]: 30.2%
viability at 10 µM [32]: 44.2%
viability at 10 µM [33]: 68.6%
viability at 10 µM [34]: 80%
viability at 10 µM [35]: 38.9%
viability at 10 µM [36]: 95.8%
viability at 10 µM [37]: 75.8%
viability at 10 µM [38]: 39.9%
viability at 10 µM [39]: 42.8%
viability at 10 µM [40]: 77.1%
viability at 10 µM [41]: 104%

O=C(NCCCNc1nccc(-c2c(-c3cccc(F)c3)nc3sccn23)n1)c1ccc(F)cc1
viability at 10 µM [1]: 76.3%
viability at 10 µM [2]: 44.5%
viability at 10 µM [3]: 73%
viability at 10 µM [4]: 89%
viability at 10 µM [5]: 50.6%
viability at 10 µM [6]: 87.2%
viability at 10 µM [7]: 67.8%
viability at 10 µM [8]: 120%
viability at 10 µM [9]: 71.9%
viability at 10 µM [10]: 95%
viability at 10 µM [11]: 49.4%
viability at 10 µM [12]: 64.7%
viability at 10 µM [13]: 75.8%
viability at 10 µM [14]: 105%
viability at 10 µM [15]: 75.7%
viability at 10 µM [16]: 119%
viability at 10 µM [17]: 85.2%
viability at 10 µM [18]: 67.8%
viability at 10 µM [19]: 106%
viability at 10 µM [20]: 99.8%
viability at 10 µM [21]: 71%
viability at 10 µM [22]: 112%
viability at 10 µM [23]: 60.8%
viability at 10 µM [24]: 82%
viability at 10 µM [25]: 111%
viability at 10 µM [26]: 79.5%
viability at 10 µM [27]: 69%
viability at 10 µM [28]: 81.2%
viability at 10 µM [29]: 95.2%
viability at 10 µM [30]: 75.9%
viability at 10 µM [31]: 36.9%
viability at 10 µM [32]: 89%
viability at 10 µM [33]: 59.2%
viability at 10 µM [34]: 83.9%
viability at 10 µM [35]: 65.2%
viability at 10 µM [36]: 66.3%
viability at 10 µM [37]: 115%
viability at 10 µM [38]: 74.9%
viability at 10 µM [39]: 62.5%
viability at 10 µM [40]: 96.3%
viability at 10 µM [41]: 116%
